According to patent US20230126310A1 (priority 2020, published 2023):
Where a name gives a salt, the structure may show the parent alone. Read-outs that look alike come from different tables or passages of the source.

Key:
[1] = Compound cytotoxicity against CaCo-2 cells at 48 hours; type: cell-based, Human; details: human, Table 5, further results of Examples 1 and 2, mean ± spread
Procedure: The cytotoxicity of the profiled compounds towards CaCo-2 cells at 48 hours was assessed. […] After 48 hours, cytotoxicity was evaluated using both digital phase contrast readout as described above and ATP determination (Cell titre-glo, Promega Corp).

SARS-CoV-2 [2] = test: microbe, parasite or virus in culture; details: for inhibition at 10 µM: read-out: % Inh. (% Inhibition of SARS-CoV-2)
SARS-CoV-2 [3] = details: for % Inh. (% Inhibition of SARS-CoV-2): 10 µM
[4] = Severe acute respiratory syndrome coronavirus 2, Caco-2, 48 h
[5] = Severe acute respiratory syndrome coronavirus 2, Caco-2, 48 h, read-out: pIC50 (converted)

Molecule | CC50 at 48 h ([1]; CaCo-2 cells) [µM] | IC50 (SARS-CoV-2 [2]; [4]) [µM] | inhibition at 10 µM (SARS-CoV-2 [2]; [4]) [%] | IC50 (SARS-CoV-2 [2]; [5]) [µM] | % Inh. (% Inhibition of SARS-CoV-2) (SARS-CoV-2 [3]) [%] | other results
O=c1ccc2ccc(OCCCCN3CCN(c4cccc5sccc45)CC3)cc2[nH]1 [Brexpiprazole] | 50.6 ± 68.7 | 22.9 | 84.8 | 22.9 | – | –
Cc1nc2ccccc2n1Cc1ccc(Cl)cc1 [CHLORMIDAZOLE] | 0.88 ± 0.82 | > 1 | – | – | – | –
Cn1c(C#N)ccc1-c1ccc2c(c1)C(C)(C)OC(=S)N2 [Tanaproget] | – | > 1 | 96.2 | 1.12 | – | IC50 (SARS-CoV-2 [3]): 1.13 µM
CCOC(=O)O[C@]1(C(=O)OCCl)CC[C@H]2[C@@H]3CCC4=CC(=O)C=C[C@]4(C)[C@H]3[C@@H](O)C[C@@]21C [Loteprednol etabonate] | 49 ± 45.9 | 21.3 | 102 | 21.4 | – | –
COC(=O)C[C@](O)(CCCC(C)(C)O)C(=O)O[C@@H]1C(OC)=C[C@]23CCCN2CCc2cc4c(cc2[C@H]13)OCO4 [homoharringtonine] | 1.72 ± 1.89 | 2.25 | 154 | 2.24 | – | –
COC(=O)C[C@](O)(CCC(C)(C)O)C(=O)O[C@@H]1C(OC)=C[C@]23CCCN2CCc2cc4c(cc2[C@H]13)OCO4 [Harringtonine] | – | 23.7 | 93.6 | 23.4 | – | CC50 at 48 h [1]: 0.07 ± 0.06 µM; IC50 (SARS-CoV-2 [2]; Severe acute respiratory syndrome coronavirus 2, Caco-2, read-out: IC50: concentration of 50% inhibition of virus infection, Table 5, further results of Examples 1 and 2, […]): 19 µM; IC50 (SARS-CoV-2 [2]; Severe acute respiratory syndrome coronavirus 2, Caco-2, read-out: pIC50: -log10 of IC50, Table 5, further results of Examples 1 and 2 (converted)): 19.1 µM
FC(F)(F)c1ccc(CNc2ccc(Cc3c[nH]c4ncc(Cl)cc34)cn2)cn1 [Pexidartinib] | 41.5 ± 32.5 | 5.92 | – | 5.89 | – | –
Cc1cc(-c2ncc(CC(=O)Nc3ccc(-c4cnccn4)cn3)cc2C)ccn1 [LGK-974] | 7.61 ± 0.06 | 2.33 | 105 | 2.34 | – | –
CC1=C(CCC(=O)O)c2cc3[nH]c(cc4nc(cc5[nH]c(cc1n2)c(C)c5C(C)O)C(C)=C4C(C)O)c(C)c3CCC(=O)O (stereo not shown) [hematoporphyrin] | 160 ± 139 | – | 96.8 | – | – | –
CC(C)S(=O)(=O)NC[C@H](C)c1ccc(-c2ccc(CCNS(C)(=O)=O)cc2)cc1 [Mibampator] | 8.66 ± 1.75 | 2.23 | 90.1 | 2.24 | – | –
Cc1cccc(C)c1NC(=O)CN1CCN(CCCC(c2ccc(F)cc2)c2ccc(F)cc2)CC1 [lidoflazine] | 31.9 ± 11 | 21.3 | 95.9 | 21.4 | – | –
CCOc1ccc(Cc2nccc3cc(OCC)c(OCC)cc23)cc1OCC [ETHAVERINE HYDROCHLORIDE] | 11 ± 1.07 | 0.54 | 85 | 0.537 | – | –
Cc1cc(C)c(Nc2ccnc(Nc3ccc(C#N)cc3)n2)c(C)c1 [Dapivirine (TMC120), Dapivirine] | 5 ± 0.07 | – | 108 | – | – | –
Clc1ccc(Nc2nnc(Cc3ccncc3)c3ccccc23)cc1 [vatalanib] | 64.2 ± 57.4 | 24.4 | 85.9 | 24.5 | – | –
NC(=O)N1CCC(CC(=O)N2CCC([C@H]3c4ncc(Br)cc4CCc4cc(Cl)cc(Br)c43)CC2)CC1 [Lonafarnib (SCH66336), Lonafarnib] | 10.7 ± 7.39 | – | – | – | – | –
Tocofersolan | – | – | – | – | 95.2 | –
CCN1CCN(Cc2ccc(C(=O)Nc3ccc(C)c(Oc4ccc5c(c4)CC(=O)N5)c3)cc2C(F)(F)F)CC1 [DDR1-IN-1] | – | – | – | – | 77.6 | –
COc1cc(/C=C2\CCCN([C@@H](C)c3ccc(F)cc3)C2=O)ccc1-n1cnc(C)c1 [E 2012] | – | – | – | – | 100.8 | –
Nc1cccc(CNC(=O)c2ccc(Oc3ccc(OCc4cccc(F)c4)cc3)nc2)c1 [YM-244769] | – | – | – | – | 60.4 | –
COc1ccc(CC2NCCc3c2[nH]c2ccc(C)cc32)c(Cl)c1OC (stereo not shown) [LY266097] | – | – | – | – | 89.3 | –
COc1c(C)cnc(Cn2cc(C#CCC(C)(C)O)c3c(Cl)nc(N)nc32)c1C [EC-144] | – | – | – | – | 95.0 | –
CN(C)C(=O)C(=O)c1cn(C)c2cc(Cl)c(C(=O)N3CCC(Cc4ccc(F)cc4)CC3)cc12 [SX-011] | – | – | – | – | 94.1 | –
O=C1Nc2ccccc2C2(CCN(CCc3ccc(C(F)(F)F)cc3)CC2)O1 [RS-102895] | – | – | – | – | 82.1 | –
Clc1ccc(N/N=C(\c2ccccc2)c2ccccn2)nc1 [JIB04 (NSC693627)] | – | – | – | – | 106.4 | –
verteporfin | – | – | – | – | 139.9 | –
TC-I-2014 | – | – | – | – | 97.8 | –
CSc1nc(-c2ccnc(NC(C)c3ccccc3)c2)c(-c2ccc(F)cc2)[nH]1 (stereo not shown) [ML-3403] | – | – | – | – | 50.3 | –
CCc1c2c(nc3ccc(O)cc13)-c1cc3c(c(=O)n1C2)COC(=O)[C@]3(O)CC [SN-38] | – | – | – | – | 79.2 | –
CCc1nc2ccc(Cl)cn2c1C(=O)NCc1ccc(N2CCC(c3ccc(OC(F)(F)F)cc3)CC2)cc1 [Q-203] | – | – | – | – | 96.9 | –
CC(C)(C)c1ccc(-c2nc3c(N4CCN(Cc5ccc6nccnc6c5)CC4)cccc3[nH]2)cc1 [WAY-207024] | – | – | – | – | 77.1 | –
